Test results published in ChEMBL document CHEMBL1201862, “PubChem BioAssay data set” (2004).
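Step 1: Grow cells in 96-well plates. Step 2: Expose to compound for 48 hours at 5 concentrations. Step 3: Interpolate endpoints linearly; if unreached, use highest concentration. GI50: concentration for 50% inhibition of growth.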 The source made the active and inactive calls. Cut-off read from the data, not from the text of the source: active = GI50 up to about 1.1 µM and inactive = higher. Where a SMILES comes first, the peptide text is derived from it. [ ]: non-standard residue; d: D form. The star is where a group is joined. Bn2Val = CC(C)[C@@H](C(=O)*)N(Cc1ccccc1)Cc1ccccc1; NHPiperonyl = c1cc2c(cc1CN*)OCO2; NMeV = CN[C@H](C(=O)O)C(C)C; dNMeA = CN[C@H](C)C(=O)O

Key:
Assay in all cases: NCI tumour cell line growth inhibition, 48 h
[1] = system: CCRF-CEM
[2] = system: EKVX
[3] = system: HCT-116
[4] = system: HCT-15
[5] = system: HOP-92
[6] = system: K562
[7] = system: LOX IMVI
[8] = system: MDA-MB-435
[9] = system: Malme-3M
[10] = system: NCI-H23
[11] = system: NCI/ADR-RES
[12] = system: OVCAR-5
[13] = system: PC-3
[14] = system: SF-295
[15] = system: SF-539
[16] = system: SK-MEL-2
[17] = system: SNB-19
[18] = system: UACC-257
[19] = system: RXF 393
[20] = system: SR

Row | SMILES | GI50 [1] | GI50 [2] | GI50 [3] | GI50 [4] [µM] | GI50 [5] | GI50 [6] | GI50 [7] | GI50 [8] | GI50 [9] | GI50 [10] | GI50 [11] | GI50 [12] | GI50 [13] | GI50 [14] | GI50 [15] | GI50 [16] | GI50 [17] | GI50 [18] | GI50 [19] | GI50 [20]
1 | CC(=O)N(CN1C(=O)CCC1C(=O)O)c1ccc(C)cc1 (configuration not stated) | > 100 µM (inactive) | > 100 µM (inactive) | > 100 µM (inactive) | > 100 | > 100 µM (inactive) | > 100 µM (inactive) | > 100 µM (inactive) | > 100 µM (inactive) | > 100 µM (inactive) | > 100 µM (inactive) | > 100 µM (inactive) | > 100 µM (inactive) | > 100 µM (inactive) | > 100 µM (inactive) | > 100 µM (inactive) | > 100 µM (inactive) | > 100 µM (inactive) | > 100 µM (inactive) |  | 
2 | Cc1c(F)c(N)c2c(=O)cc(-c3ccc(NC(=O)CN(C)C)c(F)c3)oc2c1F | 21 µM (inactive) |  | > 100 µM (inactive) | 61.8 |  | 26.7 µM (inactive) | 33 µM (inactive) | 48.2 µM (inactive) | > 100 µM (inactive) | > 100 µM (inactive) | 68.7 µM (inactive) | 57 µM (inactive) | 38.3 µM (inactive) | 68.1 µM (inactive) | > 100 µM (inactive) | 60.7 µM (inactive) | 54.1 µM (inactive) | > 100 µM (inactive) | > 100 µM (inactive) | 17.6 µM (inactive)
3 | C=C[C@@H]1OC(=O)O[C@H]1CO | > 100 µM (inactive) | > 100 µM (inactive) | > 100 µM (inactive) | > 100 |  | > 100 µM (inactive) | > 100 µM (inactive) | > 100 µM (inactive) | > 100 µM (inactive) | > 100 µM (inactive) | > 100 µM (inactive) | > 100 µM (inactive) | > 100 µM (inactive) | > 100 µM (inactive) |  | > 100 µM (inactive) | > 100 µM (inactive) | > 100 µM (inactive) |  | > 100 µM (inactive)
4 | COc1cc(Cn2c3c(c4c(CN(C)C)c(O)ccc42)C(=O)c2ccccc2C3=O)cc(OC)c1 | 24.3 µM (inactive) | 20 µM (inactive) | 13.6 µM (inactive) | 14 |  | 14 µM (inactive) | 16.6 µM (inactive) | 18.1 µM (inactive) | 23.2 µM (inactive) | 15.7 µM (inactive) | 17.6 µM (inactive) | 21.7 µM (inactive) | 21 µM (inactive) | 21.5 µM (inactive) | 16.3 µM (inactive) | 16.3 µM (inactive) | 18.7 µM (inactive) | 22.8 µM (inactive) |  | 10.3 µM (inactive)
5 | CC(C)(C)C(=O)CC1=Nc2ccccc2SC1(O)CC(=O)C(C)(C)C (configuration not stated) | 8.49 µM (inactive) | 16.2 µM (inactive) | 24 µM (inactive) | 15.3 |  | 21.5 µM (inactive) | 17.1 µM (inactive) | 22.6 µM (inactive) | 33.3 µM (inactive) | 24.1 µM (inactive) | 21.9 µM (inactive) | 19.8 µM (inactive) | 22.5 µM (inactive) | 24.8 µM (inactive) | 22.9 µM (inactive) | 13.7 µM (inactive) | 35.6 µM (inactive) | 37.1 µM (inactive) | 23.5 µM (inactive) | 11.8 µM (inactive)
6 | CCCCCCc1nn2c(-c3ccc(C)cc3)nnc2s1 |  | 76.9 µM (inactive) | 49.2 µM (inactive) | > 100 |  | > 100 µM (inactive) |  | > 100 µM (inactive) |  | > 100 µM (inactive) | > 100 µM (inactive) | > 100 µM (inactive) | 56.1 µM (inactive) | > 100 µM (inactive) | 81.8 µM (inactive) | > 100 µM (inactive) | > 100 µM (inactive) | 42.1 µM (inactive) | 77.8 µM (inactive) | 
7 | C=C1CC2C[C@H](OS(=O)(=O)c3ccc(C)cc3)C(C1)N2C (some centres not stated) | > 100 µM (inactive) | > 100 µM (inactive) | > 100 µM (inactive) | > 100 |  | > 100 µM (inactive) | > 100 µM (inactive) | > 100 µM (inactive) | > 100 µM (inactive) | > 100 µM (inactive) | > 100 µM (inactive) |  | > 100 µM (inactive) | > 100 µM (inactive) | > 100 µM (inactive) | > 100 µM (inactive) | > 100 µM (inactive) | > 100 µM (inactive) | > 100 µM (inactive) | > 100 µM (inactive)
8 | C1=CC2C(C3CN(c4ccccc4)N=C13)C1C3C4C=CC21C=CC43 (configuration not stated) | > 69.3 µM (inactive) | > 100 µM (inactive) | > 100 µM (inactive) | > 100 | 80 µM (inactive) | > 100 µM (inactive) | > 100 µM (inactive) | > 100 µM (inactive) | 57.5 µM (inactive) | > 100 µM (inactive) | > 100 µM (inactive) | > 100 µM (inactive) | > 100 µM (inactive) | > 100 µM (inactive) | > 100 µM (inactive) | > 100 µM (inactive) | > 100 µM (inactive) | > 100 µM (inactive) | 0.172 µM (active) | 
9 | CC(C)[C@H](NC(=O)[C@H](C(C)C)N(Cc1ccccc1)Cc1ccccc1)C(=O)N(C)[C@H](C(=O)N1CCC[C@H]1C(=O)N(C)[C@H](C)C(=O)NCc1ccc2c(c1)OCO2)C(C)C (Bn2Val-V[NMeV]P[dNMeA]-NHPiperonyl) | 2.56 µM (inactive) | 4.98 µM (inactive) | 3.48 µM (inactive) | 3.54 |  | 2.59 µM (inactive) | 5.9 µM (inactive) | 17.2 µM (inactive) | 21.9 µM (inactive) | 16.8 µM (inactive) | 2.91 µM (inactive) | 4.38 µM (inactive) | 3.35 µM (inactive) | 4.94 µM (inactive) | 3.37 µM (inactive) | 5.97 µM (inactive) | 18.2 µM (inactive) | 5.56 µM (inactive) |  | 
10 | Cc1cc2c(cc1Cl)SC(NNC1=NCCN1)=NS2(=O)=O | > 10 µM (inactive) | > 10 µM (inactive) | > 10 µM (inactive) | > 10 |  | > 10 µM (inactive) | > 10 µM (inactive) | > 10 µM (inactive) | > 10 µM (inactive) | > 10 µM (inactive) | > 10 µM (inactive) | > 10 µM (inactive) | > 10 µM (inactive) | > 10 µM (inactive) | > 10 µM (inactive) | > 10 µM (inactive) | > 10 µM (inactive) | > 10 µM (inactive) | > 10 µM (inactive) | 
11 | CC1(C)O[C@H]2OC(CO)C(OS(C)(=O)=O)[C@H]2O1 (some centres not stated) | > 100 µM (inactive) | > 100 µM (inactive) | > 100 µM (inactive) | > 100 | > 100 µM (inactive) |  | > 100 µM (inactive) | > 100 µM (inactive) | > 100 µM (inactive) | > 100 µM (inactive) | > 100 µM (inactive) | > 100 µM (inactive) | > 100 µM (inactive) | > 100 µM (inactive) | > 100 µM (inactive) | > 100 µM (inactive) | > 100 µM (inactive) | > 100 µM (inactive) |  | 
12 | CC(C)=CC(C)C(C(O)CCC1(c2ccoc2)OCCO1)S(=O)(=O)c1ccccc1 (configuration not stated) | > 100 µM (inactive) | > 100 µM (inactive) | > 100 µM (inactive) | > 100 |  |  | > 100 µM (inactive) | > 100 µM (inactive) | > 100 µM (inactive) | > 100 µM (inactive) | 91.6 µM (inactive) | > 100 µM (inactive) | > 100 µM (inactive) | > 100 µM (inactive) | > 100 µM (inactive) | > 100 µM (inactive) | > 100 µM (inactive) | > 100 µM (inactive) | > 100 µM (inactive) | 
13 | CC(=O)NC(=O)/N=C1\NCCC(=O)N1CCc1c[nH]c2ccccc12 | > 100 µM (inactive) | > 100 µM (inactive) | > 100 µM (inactive) | > 100 | > 100 µM (inactive) | > 100 µM (inactive) | > 100 µM (inactive) | > 100 µM (inactive) | > 100 µM (inactive) | > 100 µM (inactive) | > 100 µM (inactive) | > 100 µM (inactive) | > 100 µM (inactive) | > 100 µM (inactive) | > 100 µM (inactive) | > 100 µM (inactive) | > 100 µM (inactive) | > 100 µM (inactive) | > 100 µM (inactive) | 
14 | C=C(C)CC1(O[Si](C)(C)C)C(=O)C(OCC)=C1OCC (configuration not stated) | > 100 µM (inactive) | > 100 µM (inactive) | > 100 µM (inactive) | > 100 | > 100 µM (inactive) |  | > 100 µM (inactive) | > 100 µM (inactive) | > 100 µM (inactive) | > 100 µM (inactive) | > 100 µM (inactive) | > 100 µM (inactive) | > 100 µM (inactive) | > 100 µM (inactive) | > 100 µM (inactive) | > 100 µM (inactive) | > 100 µM (inactive) | > 100 µM (inactive) |  | 
15 | O=C(Nc1ccc2nc(O)n[n+]([O-])c2c1)C(F)(F)F | > 100 µM (inactive) | > 100 µM (inactive) | > 100 µM (inactive) | > 100 |  | > 100 µM (inactive) | > 100 µM (inactive) | > 100 µM (inactive) |  | > 100 µM (inactive) | > 100 µM (inactive) | > 100 µM (inactive) | > 100 µM (inactive) | > 100 µM (inactive) | > 100 µM (inactive) | > 100 µM (inactive) | > 100 µM (inactive) | > 100 µM (inactive) |  | > 100 µM (inactive)
16 | O=[N+]([O-])C1(C2([N+](=O)[O-])CCCC2)CCCC1 | > 100 µM (inactive) | > 100 µM (inactive) | > 100 µM (inactive) | > 100 |  | > 100 µM (inactive) | > 100 µM (inactive) | > 100 µM (inactive) | > 100 µM (inactive) | > 100 µM (inactive) | > 100 µM (inactive) | > 100 µM (inactive) | > 100 µM (inactive) |  | > 100 µM (inactive) | > 100 µM (inactive) | > 100 µM (inactive) | > 100 µM (inactive) | > 100 µM (inactive) | > 100 µM (inactive)
